Source: PMC9311539, “Antibacterial Activity against Clinical Isolates and In Vivo Efficacy of Coralmycins” (Antibiotics, 2022)
In brackets after ≈: the same amount, converted by molar mass. Read-outs that look alike come from different tables or passages of the source.

Assays:
MRSA = experiment: MIC, broth microdilution, clinical isolates: MRSA; type: cell-based, Staphylococcus aureus; settings: Staphylococcus aureus, MRSA, 42 clinical isolates
Protocol: (§1) To assess the MICs for antibiotic susceptibility, Gram-positive bacteria isolated from human clinical specimens were obtained from several general hospitals in Seoul, Korea, during 2002–2018. Staphylococcus aureus Giorgio and Streptococcus pneumoniae ATCC49619 were used to test in vivo efficacies against […], in mice.
(§2) The MICs of the antimicrobial agents were determined by a twofold microdilution broth method, as described by the Clinical and Laboratory Standards Institute. Briefly, test organisms were grown on Mueller–Hinton agar (MHA, BD Difco, Sparks, MD, USA) plates, subcultured into cation-adjusted Mueller–Hinton broth (CAMHB, BD Difco, Sparks, MD, USA), and incubated for 18 h at 35 °C. For S. pneumoniae culture, 5% sheep blood (Hanil Comed, Seongnam, Korea) was added. The cultured bacteria were diluted using phosphate-buffered saline (PBS) to achieve a bacterial cell density of approximately 5 × 10^6 CFU/mL. All test organisms were loaded into 96-well plates containing serial dilutions of the antimicrobial agents to achieve a concentration of 5 × 10^4 CFU/well. The plates were incubated at 35 °C for 18–20 h and examined for bacterial growth.

VRE 3 [1] = experiment: Time-kill assay, VRE 3; type: cell-based, vancomycin-resistant Enterococcus; settings: 2× and 4× MIC, 24 h
Protocol: (§3) Time-kill analysis was performed by the NCCLS M26-A method. The test organisms (S. aureus Giorgio, S. pneumoniae ATCC49619, MRSA CCARM 3167, and VRE 3) incubated in CAMHB for 18 h at 35 °C were diluted to 10^5 CFU/mL with fresh CAMHB, and the diluted cultures were preincubated for 2 h. For S. pneumoniae culture, 5% sheep blood (Hanil Comed, Seongnam, Korea) was added. […] Culture aliquots (0.1 mL) were removed after 0, 2, 4, 6 and 24 h of incubation, and serial 10-fold dilutions were prepared in saline as needed. The numbers of viable cells were determined on drug-free MHA plates after 20 h of incubation. A compound was considered bactericidal if the original inoculum was reduced by 3 log CFU/mL (99.9%) at each concentration or was considered bacteriostatic if the inoculum was reduced by 0–3 log CFU/mL.

[2] = tested on: Vancomycin-sensitive E. faecium; experiment: MIC, broth microdilution, clinical isolates: vancomycin-sensitive E. faecium; type: cell-based, Enterococcus faecium; settings: Enterococcus faecium, 32 clinical isolates
Protocol: as §1, §2

MRSA CCARM 3167 [3] = experiment: Time-kill assay, MRSA CCARM 3167; type: cell-based, Staphylococcus aureus; settings: 2× and 4× MIC, 24 h
Protocol: as §3

[4] = cited from earlier work
[5] = tested on: CNS (coagulase-negative staphylococci); experiment: MIC, broth microdilution, clinical isolates: CNS; type: cell-based; settings: 31 clinical isolates
Protocol: as §1, §2

MRSA CCARM 3167 [6] = experiment: MIC against MRSA CCARM 3167; type: cell-based; settings: Staphylococcus aureus; read-out: MIC
Protocol: as §2

S. pneumoniae = experiment: MIC, broth microdilution, clinical isolates: S. pneumoniae; type: cell-based, Streptococcus pneumoniae
Protocol: as §1, §2

VRE 3 [7] = experiment: MIC against VRE 3; type: cell-based, vancomycin-resistant Enterococcus; settings: Enterococcus, read-out: MIC
Protocol: as §2

S. pneumoniae ATCC49619 [8] = experiment: Time-kill assay, S. pneumoniae ATCC49619; type: cell-based, Streptococcus pneumoniae; settings: 2× and 4× MIC, 24 h
Protocol: as §3

VRE = experiment: MIC, broth microdilution, clinical isolates: VRE; type: cell-based, vancomycin-resistant Enterococcus
Protocol: as §1, §2

MSSA = experiment: MIC, broth microdilution, clinical isolates: MSSA; type: cell-based; settings: Staphylococcus aureus, 26 clinical isolates
Protocol: as §1, §2

S. aureus Giorgio [9] = experiment: Time-kill assay, S. aureus Giorgio; type: cell-based, Staphylococcus aureus; settings: 2× and 4× MIC, 24 h
Protocol: as §3

S. pneumoniae ATCC49619 [10] = experiment: Neutropenic mouse respiratory tract infection model; type: in vivo, female ICR mice
Protocol: For the respiratory tract infection model, neutropenic mice were anesthetized and intranasally inoculated with a 50 μL suspension of S. pneumoniae ATCC49619 (4.4 × 10^8 CFU/mL). For the thigh infection model, the neutropenic mice were administered an intramuscular injection of a 100 μL suspension of S. aureus Giorgio (1 × 10^6 CFU/mL) into both thighs. For both models, four mice were included in each group. At 2 h after infection, two mice were sacrificed, and the infected thighs or lungs (n = 4) were excised to determine the initial bacterial levels. […] At 24 h after infection, the mice were sacrificed by cervical dislocation; their thighs or lungs were removed, homogenized, serially diluted with saline, and plated onto MHA to count the number of bacteria remaining. The number of viable bacterial cells (CFU) in the thighs or lungs of vehicle- and drug-treated mice was determined.

S. pneumoniae ATCC49619 [11] = experiment: MIC against S. pneumoniae ATCC49619; type: cell-based; settings: Streptococcus pneumoniae, ATCC49619; read-out: MIC
Protocol: as §2

[12] = tested on: Vancomycin-sensitive E. faecalis; experiment: MIC, broth microdilution, clinical isolates: vancomycin-sensitive E. faecalis; type: cell-based, Enterococcus faecalis; settings: Enterococcus faecalis, 32 clinical isolates
Protocol: as §1, §2

S. aureus Giorgio [13] = experiment: MIC against S. aureus Giorgio; type: cell-based, Staphylococcus aureus; settings: Staphylococcus aureus; read-out: MIC
Protocol: as §2

**Q.** What does the source list for `CC(=O)NC[C@H]1CN(c2ccc(N3CCOCC3)c(F)c2)C(=O)O1` [Linezolid]?
**A.** MIC50 (MRSA; read-out: MIC50): 2 µg/mL (≈ 5.93 µM); MIC90 (MRSA; read-out: MIC90): 4 µg/mL (≈ 11.9 µM); time-kill activity (VRE 3 [1]): bacteriostatic (considered bacteriostatic if the inoculum was reduced by 0–3 log CFU/mL); MIC50 ([2]; read-out: MIC50): 2 µg/mL (≈ 5.93 µM); MIC90 ([2]; read-out: MIC90): 4 µg/mL (≈ 11.9 µM); time-kill activity (MRSA CCARM 3167 [3]): bacteriostatic (considered bacteriostatic if the inoculum was reduced by 0–3 log CFU/mL); bound to plasma proteins [4]: 18%; MIC50 ([5]; read-out: MIC50): 2 µg/mL (≈ 5.93 µM); MIC90 ([5]; read-out: MIC90): 4 µg/mL (≈ 11.9 µM); MIC (MRSA CCARM 3167 [6]): 1 µg/mL (≈ 2.96 µM); MIC90 (S. pneumoniae; 27 clinical isolates): 4 µg/mL (≈ 11.9 µM); MIC90 (S. pneumoniae; Streptococcus pneumoniae, 27 S. pneumoniae isolates, read-out: MIC90): 4 µg/mL (≈ 11.9 µM); MIC50 (S. pneumoniae; Streptococcus pneumoniae, 27 clinical isolates, read-out: MIC50): 2 µg/mL (≈ 5.93 µM); MIC (VRE 3 [7]): 2 µg/mL (≈ 5.93 µM); time-kill activity (S. pneumoniae ATCC49619 [8]): bacteriostatic (considered bacteriostatic if the inoculum was reduced by 0–3 log CFU/mL); MIC90 (VRE; 46 clinical isolates): 4 µg/mL (≈ 11.9 µM); MIC50 (VRE; Enterococcus, VRE, 46 clinical isolates, read-out: MIC50): 2 µg/mL (≈ 5.93 µM); MIC90 (VRE; Enterococcus, 46 VRE isolates, read-out: MIC90): 4 µg/mL (≈ 11.9 µM); MIC50 (MSSA; read-out: MIC50): 2 µg/mL (≈ 5.93 µM); MIC90 (MSSA; read-out: MIC90): 2 µg/mL (≈ 5.93 µM); time-kill activity (S. aureus Giorgio [9]): bacteriostatic (considered bacteriostatic if the inoculum was reduced by 0–3 log CFU/mL); in vivo effect (bacteriostatic or bactericidal) (S. pneumoniae ATCC49619 [10]; 4 mg/kg bid s.c.): bacteriostatic; in vivo effect (bacteriostatic or bactericidal) (S. pneumoniae ATCC49619 [10]; 20 mg/kg bid s.c.): bactericidal; reduction of the starting bacterial burden compared to the 2-h control group (S. pneumoniae ATCC49619 [10]; second trial, 20 mg/kg bid): 0.75 log10 CFU/lung; MIC (S. pneumoniae ATCC49619 [11]): 2 µg/mL (≈ 5.93 µM); MIC50 ([12]; read-out: MIC50): 2 µg/mL (≈ 5.93 µM); MIC90 ([12]; read-out: MIC90): 4 µg/mL (≈ 11.9 µM); MIC (S. aureus Giorgio [13]): 2 µg/mL (≈ 5.93 µM)
